Values joined by “and” are separate entries in the source; they are usually repeats but may differ in a detail not shown here. Equal entries are not always repeated.
Test: contact angle measurement (wettability)
Format: physicochemical
Settings: for Contact Angle: water, n = 2; for surface hydrophobicity: critical angle around 50°
Description: The contact angle instrument was EasyDrop DSA15E (Krüss, Hamburg, Germany). The syringe was a NE44, with a needle diameter of 0.5 mm (Krüss, Hamburg, Germany). The standards (Krüss, Hamburg, Germany) were CP24 20007107, contact angle Gauge#4=30.00°±0.3, Gauge#5=60.00°±0.3, Gauge#6=120.00°±0.3.
The powder was pressed (approx 50 mg powder, 3 tons, 2 min) in tablets and analyzed by contact angle measuremnt. The angle between the solid and the liquid is measured after 0 and up to 60 seconds using water.
All determinations used the above method, and the limit for the standards measurements are well within the given limits.

Contact Angle (0 sec) | Contact Angle (30 sec) | Contact Angle (60 sec) | surface hydrophobicity | Compound
72.4 ° and 79.7 ° | 54.6 ° and 55.2 ° | 53.5 ° and 52.8 ° | hydrophobic | CNc1cc2[nH]c(=O)n(-c3ccc(NC(=O)[N-]S(=O)(=O)c4ccc(Cl)s4)cc3)c(=O)c2cc1F.[K+] [B]
65.9 ° | 60.8 ° | 60.1 ° | – | CNc1cc2[nH]c(=O)n(-c3ccc(NC(=O)NS(=O)(=O)c4ccc(Cl)s4)cc3)c(=O)c2cc1F [Free acid, [4-(6-fluoro-7-methylamino-2,4-dioxo-1,4-dihydro-2H-quinazolin-3-yl)-phenyl]-5-chloro-thiophen-2-yl-sulfonylurea]
78.8 ° | 53.3 ° | 51.0 ° | hydrophobic | CNc1cc2[nH]c(=O)n(-c3ccc(NC(=O)[N-]S(=O)(=O)c4ccc(Cl)s4)cc3)c(=O)c2cc1F.[K+] [A]

Source: patent US20130165459A1, “PHARMACEUTICAL COMPOSITION AND DOSAGE FORMS OF ELINOGREL AND METHODS OF USE THEREOF” (NORVARTIS PHARMA AG, priority 2010, published 2013)
